Experimental data from the NIST ThermoML archive (doi:10.1021/je300557g).

Experiments:
[1] = 101.33 kPa, Liquid; for viscosity: Capillary tube (Ostwald / Ubbelohde) method; for mass density: Vibrating tube method
[2] = xn = mol fraction of the nth substance listed; conditions: 101 kPa, Liquid; for mass density: Vibrating tube method

CCCC[n+]1cccc(C)c1.F[B-](F)(F)F [1-butyl-3-methylpyridinium tetrafluoroborate]
[1]
Conditions | mass density [kg/m3] | viscosity [mPa·s]
293.15 K | 1185.66 | 246.62
303.15 K | 1178.86 | 129.91
313.15 K | 1172.11 | 76.46
323.15 K | 1165.37 | 48.18

CCCC[n+]1ccc(C)cc1.F[B-](F)(F)F [1-butyl-4-methylpyridinium tetrafluoroborate]
[1]
Conditions | mass density [kg/m3] | viscosity [mPa·s]
293.15 K | 1185.92 | 284.62
303.15 K | 1179.12 | 144.68
313.15 K | 1172.12 | 85.53
323.15 K | 1165.52 | 55.53

CCCC[n+]1ccccc1.F[B-](F)(F)F [1-butylpyridinium tetrafluoroborate]
[1]
Conditions | mass density [kg/m3] | viscosity [mPa·s]
293.15 K | 1217.11 | 220.54
303.15 K | 1210.83 | 119.52
313.15 K | 1203.72 | 71.11
323.15 K | 1196.68 | 45.59

CCCC[n+]1ccccc1.F[B-](F)(F)F [1-butylpyridinium tetrafluoroborate] + CCO
[2]
Conditions | kinematic viscosity, 303.15 K [m2/s] | kinematic viscosity, 313.15 K [m2/s] | kinematic viscosity, 323.15 K [m2/s] | mass density, 303.15 K [kg/m3] | mass density, 313.15 K [kg/m3] | mass density, 323.15 K [kg/m3]
x1 = 0.0482 | 1.42e-06 | 1.29e-06 | 1.15e-06 | 843.38 | 834.98 | 826.69
x1 = 0.0945 | 1.96e-06 | 1.68e-06 | 1.41e-06 | 892.42 | 884.28 | 876.45
x1 = 0.1932 | 3.17e-06 | 2.57e-06 | 2.06e-06 | 972.49 | 964.73 | 957.44
x1 = 0.2702 | 4.37e-06 | 3.45e-06 | 2.73e-06 | 1019.05 | 1011.49 | 1004.32
x1 = 0.3959 | 7.13e-06 | 5.43e-06 | 4.24e-06 | 1076.24 | 1068.89 | 1061.7
x1 = 0.4954 | 1.03e-05 | 7.61e-06 | 5.94e-06 | 1110.49 | 1103.28 | 1096.06
x1 = 0.5999 | 1.57e-05 | 1.14e-05 | 8.55e-06 | 1139.33 | 1132.29 | 1125.08
x1 = 0.699 | 2.36e-05 | 1.65e-05 | 1.2e-05 | 1161.67 | 1154.79 | 1147.65
x1 = 0.7963 | 3.58e-05 | 2.41e-05 | 1.7e-05 | 1179.99 | 1173.24 | 1166.21
x1 = 0.8477 | 4.48e-05 | 2.95e-05 | 2.05e-05 | 1188.5 | 1181.82 | 1174.82
x1 = 0.8984 | 5.83e-05 | 3.73e-05 | 2.53e-05 | 1196.25 | 1189.62 | 1182.65
x1 = 0.9461 | 7.37e-05 | 4.58e-05 | 3.05e-05 | 1203.06 | 1196.46 | 1189.47

CCO [ethanol]
[1]
Conditions | mass density [kg/m3] | viscosity [mPa·s]
293.15 K | 789.48 | 1.18
303.15 K | 781.3 | 0.981
313.15 K | 772.57 | 0.822
323.15 K | 763.65 | 0.6939

CO [methanol]
[1]
Conditions | mass density [kg/m3] | viscosity [mPa·s]
293.15 K | 791.24 | 0.5833
303.15 K | 781.81 | 0.507
313.15 K | 772.29 | 0.4438
323.15 K | 762.63 | 0.3873
